According to ChEMBL document CHEMBL1140019, “Primary amides as selective inhibitors of cathepsin K” (Bioorg Med Chem Lett, 2007):

Columns and labels:
Homo sapiens [1] = organism: Homo sapiens; assay: Selectivity for humanized cathepsin K over human cathepsin S
Homo sapiens [2] = organism: Homo sapiens; assay: Selectivity for humanized cathepsin K over human cathepsin L

| Ratio IC50 (Homo sapiens [1]) | Ratio IC50 (Homo sapiens [2]) | SMILES |
| --- | --- | --- |
| 170 | – | CC(C)C[C@H](N[C@@H](c1ccc(-c2ccc(S(C)(=O)=O)cc2)cc1)C(F)(F)F)C(=O)NCC(N)=O |
| – | 4300 | CSCC[C@H](NC(=O)[C@H](CC(C)C)N[C@@H](c1ccc(-c2ccc(S(C)(=O)=O)cc2)cc1)C(F)(F)F)C(N)=O |
| – | 1700 | CC(C)C[C@H](N[C@@H](c1ccc(-c2ccc(S(C)(=O)=O)cc2)cc1)C(F)(F)F)C(=O)N[C@@H](Cc1ccccc1)C(N)=O |
